According to article PMC6270455, “Antibacterial and Herbicidal Activity of Ring-Substituted 3-Hydroxynaphthalene-2-carboxanilides” (Molecules, 2013):
≈ marks a conversion by molar mass, not a printed value. Where “and” joins values, the source holds several entries; their conditions need not be identical. Identical values can stand only once.

Tests used:
[1] = Lipophilicity determination by RP-HPLC (capacity factor, log k); type: physicochemical; conditions: RP-HPLC capacity factor logarithm; C18 column, MeOH 60% / H2O 40%, 40 °C
Protocol: Lipophilicity of the studied compounds was determined by RP-HPLC as capacity factor logarithm (log k) and calculated as log P using ACD/Percepta software. […] It is important to note that lipophilicity also has a great impact on target and off-target interactions, as mentioned below.
A HPLC system Agilent 1200 equipped with DAD detector (Agilent, Santa Clara, CA, USA) was used. A chromatographic column Symmetry® C18 5 μm, 4.6 × 250 mm, Part No. WAT054275, (Waters Corp., Milford, MA, USA) was used. The HPLC separation process was monitored and evaluated by EZChrom Elite software ver. 3.3.2 (Agilent). Isocratic elution by a mixture of MeOH p.a. (60%) and H2O-HPLC Mili-Q grade (40%) as a mobile phase was used. The total flow of the column was 1.0 mL/min, injection 20 μL, column temperature 40 °C and sample temperature 10 °C. The detection wavelength 210 nm was chosen. The KI methanolic solution was used for the dead time (tD) determination. Retention times (tR) were measured in minutes. The capacity factors k were calculated according to formula k = (tR − tD)/tD, where tR is the retention time of the solute, whereas tD denotes the dead time obtained using an unretained analyte. Log k, calculated from the capacity factor k, is used as the lipophilicity index converted to log P scale.

[2] = test system: Mycobacterium marinum CAMP 5644; assay: In vitro antimycobacterial evaluation, broth dilution micro-method; type: cell-based; conditions: CAMP5644, 504 h, Middlebrook 7H9, 21 days, 28 °C
[3] = test system: Staphylococcus aureus ATCC 29213; assay: In vitro antibacterial susceptibility testing, broth dilution micro-method; type: cell-based; conditions: 24 h, 37 °C; for MIC: ATCC29213, MH broth
Protocol: (§1) The synthesized compounds were evaluated for in vitro antibacterial activity against representatives of multidrug-resistant bacteria, clinical isolates of methicillin-resistant Staphylococcus aureus (MRSA) 63718, SA 630 and SA 3202 that were obtained from the National Institute of Public Health, Prague, Czech Republic. Staphylococcus aureus ATCC 29213 was used as a reference and quality control strain. Ampicillin (Sigma-Aldrich) was used as the standard. Prior to testing, each strain was passaged onto nutrient agar (Oxoid, Hampshire, UK) with 5% of bovine blood, and bacterial inocula were prepared by suspending a small portion of bacterial colony in sterile phosphate buffered saline (pH 7.2–7.3). The cell density was adjusted to 0.5 McFarland units using a densitometer (Densi-La-Meter, LIAP, Riga, Latvia). The final inoculum was made by 1:20 dilution of the suspension with the Mueller-Hinton broth (MH broth). […] The broth dilution micro-method modified according to NCCLS guidelines in MH broth was used to determine the minimum inhibitory concentration (MIC). Drug-free controls, sterility controls and controls consisted of MH broth and DMSO alone were included. The determination of results was performed visually after 24 h of static incubation in the darkness at 37 °C in an aerobic atmosphere. The MICs were defined as the lowest concentration of the compound at which no visible bacterial growth was observed.

[4] = test system: methicillin-resistant Staphylococcus aureus (MRSA) 63718; assay: as above; type: cell-based; conditions: clinical isolate MRSA 63718, MH broth, 24 h, 37 °C; for MIC: Staphylococcus aureus
Protocol: as §1

[5] = test system: methicillin-resistant S. aureus SA 630; assay: as above; type: cell-based, Staphylococcus aureus; conditions: clinical isolate MRSA SA 630, MH broth, 24 h, 37 °C; for MIC: Staphylococcus aureus
Protocol: as §1

[6] = test system: methicillin-resistant S. aureus SA 3202; assay: as above; type: cell-based, Staphylococcus aureus; conditions: clinical isolate MRSA SA 3202, MH broth, 24 h, 37 °C; for MIC: Staphylococcus aureus
Protocol: as §1

[7] = test system: M. kansasii DSM 44162; assay: In vitro antimycobacterial evaluation, broth dilution micro-method; type: cell-based; conditions: Mycobacterium kansasii, DSM44162, 168 h, Middlebrook 7H9, 7 days, 37 °C
[8] = test system: photosynthetic electron transport (PET) in spinach chloroplasts; assay: Inhibition of photosynthetic electron transport (PET) in spinach chloroplasts (DCPIP photoreduction); type: biochemical, Spinacia oleracea L.
Protocol: Chloroplasts were prepared from spinach (Spinacia oleracea L.) according to Masarovicova and Kralova. The inhibition of photosynthetic electron transport (PET) in spinach chloroplasts was determined spectrophotometrically (Genesys 6, Thermo Scientific), using an artificial electron acceptor 2,6-dichlorophenol-indophenol (DCIPP) according to Kralova et al., and the rate of photosynthetic electron transport was monitored as a photoreduction of DCPIP. The measurements were carried out in phosphate buffer (0.02 mol/L, pH 7.2) containing sucrose (0.4 mol/L), MgCl2 (0.005 mol/L) and NaCl (0.015 mol/L). The chlorophyll content was 30 mg/L in these experiments and the samples were irradiated (~100 W/m^2 with 10 cm distance) with a halogen lamp (250 W) using a 4 cm water filter to prevent warming of the samples (suspension temperature 22 °C). The studied compounds were dissolved in DMSO due to their limited water solubility. […] The inhibitory efficiency of the studied compounds was expressed by IC50 values, i.e., by molar concentration of the compounds causing 50% decrease in the oxygen evolution rate relative to the untreated control.

[9] = phosphate buffer pH 7.2, DCPIP acceptor

Row | Compound | log k [1] | MIC [2] [µM] | MIC [3] [µM] | MIC [4] [µM] | MIC [5] [µM] | MIC [6] [µM] | MIC [7] [µM] | IC50 [8, 9] | MIC SA ([3]; MH broth) [µM] | MIC MRSA 63718 [4] [µM] | MIC MRSA 630 [5] [µM] | MIC MRSA 3202 [6] [µM] | IC50 ([8]; as quoted in the chlorophyll a fluorescence discussion) [µM]
1 | COc1ccc(NC(=O)c2cc3ccccc3cc2O)cc1 [2c, 3-Hydroxy-N-(4-methoxyphenyl)naphthalene-2-carboxamide] | 0.5951 | > 873 | > 873 | > 873 | > 873 | > 873 | 873 (≈ 256 µg/mL) | – | – | – | – | – | –
2 | Cc1ccccc1NC(=O)c1cc2ccccc2cc1O [3a, 3-Hydroxy-N-(2-methylphenyl)naphthalene-2-carboxamide] | 0.6936 | 462 (≈ 128 µg/mL) | > 923 | > 923 | > 923 | 462 (≈ 128 µg/mL) | 115 (≈ 31.9 µg/mL) | – | – | – | – | – | –
3 | Cc1cccc(NC(=O)c2cc3ccccc3cc2O)c1 [3b, 3-Hydroxy-N-(3-methylphenyl)naphthalene-2-carboxamide] | 0.8831 | 923 (≈ 256 µg/mL) | > 923 | > 923 | > 923 | 462 (≈ 128 µg/mL) | 57.7 (≈ 16 µg/mL) | – | – | – | – | – | –
4 | Cc1ccc(NC(=O)c2cc3ccccc3cc2O)cc1 [3c, 3-Hydroxy-N-(4-methylphenyl)naphthalene-2-carboxamide] | 0.8753 | > 923 | > 923 | > 923 | 462 (≈ 128 µg/mL) | 231 (≈ 64.1 µg/mL) | 923 (≈ 256 µg/mL) | – | – | – | – | – | –
5 | O=C(Nc1cccc(F)c1)c1cc2ccccc2cc1O [4b, N-(3-Fluorophenyl)-3-hydroxynaphthalene-2-carboxamide] | 0.8296 | 114 (≈ 32.1 µg/mL) | > 910 | > 910 | 455 (≈ 128 µg/mL) | 228 (≈ 64.1 µg/mL) | 114 (≈ 32.1 µg/mL) | – | – | – | – | – | –
6 | O=C(Nc1ccc(F)cc1)c1cc2ccccc2cc1O [4c, N-(4-Fluorophenyl)-3-hydroxynaphthalene-2-carboxamide] | 0.7317 | 910 (≈ 256 µg/mL) | > 910 | > 910 | 455 (≈ 128 µg/mL) | 228 (≈ 64.1 µg/mL) | 114 (≈ 32.1 µg/mL) | – | – | – | – | – | –
7 | O=C(Nc1ccccc1Cl)c1cc2ccccc2cc1O [5a, N-(2-Chlorophenyl)-3-hydroxynaphthalene-2-carboxamide] | 0.9509 | 860 (≈ 256 µg/mL) | > 860 | > 860 | > 860 | 215 (≈ 64 µg/mL) | 860 (≈ 256 µg/mL) | – | – | – | – | – | –
8 | O=C(Nc1cccc(Cl)c1)c1cc2ccccc2cc1O [5b, N-(3-Chlorophenyl)-3-hydroxynaphthalene-2-carboxamide] | 1.0796 | > 860 | > 860 | > 860 | 430 (≈ 128 µg/mL) | 215 (≈ 64 µg/mL) | 860 (≈ 256 µg/mL) | – | – | – | – | – | –
9 | O=C(Nc1ccc(Cl)cc1)c1cc2ccccc2cc1O [5c, N-(4-Chlorophenyl)-3-hydroxynaphthalene-2-carboxamide] | 1.0687 | > 860 | > 860 | > 860 | > 860 | > 860 | 430 (≈ 128 µg/mL) | – | – | – | – | – | –
10 | O=C(Nc1ccccc1Br)c1cc2ccccc2cc1O [6a, N-(2-Bromophenyl)-3-hydroxynaphthalene-2-carboxamide] | 0.9715 | > 748 | > 748 | > 748 | > 748 | > 748 | 748 (≈ 256 µg/mL) | 43.2 µM | – | – | – | – | –
11 | O=C(Nc1cccc(Br)c1)c1cc2ccccc2cc1O [6b, N-(3-Bromophenyl)-3-hydroxynaphthalene-2-carboxamide] | 1.1536 | > 748 | > 748 | > 748 | > 748 | 187 (≈ 64 µg/mL) | 748 (≈ 256 µg/mL) | – | – | – | – | – | –
12 | O=C(Nc1ccc(Br)cc1)c1cc2ccccc2cc1O [6c, N-(4-Bromophenyl)-3-hydroxynaphthalene-2-carboxamide] | 1.1459 | > 748 | > 748 | > 748 | > 748 | 187 (≈ 64 µg/mL) | 374 (≈ 128 µg/mL) | – | – | – | – | – | –
13 | O=C(Nc1cccc(C(F)(F)F)c1)c1cc2ccccc2cc1O [7b, 3-Hydroxy-N-(3-trifluoromethylphenyl)naphthalene-2-carboxamide] | 1.2053 | > 748 | > 748 | > 748 | 374 (≈ 124 µg/mL) | 187 (≈ 62 µg/mL) | 748 (≈ 248 µg/mL) | – | – | – | – | – | –
14 | O=C(Nc1ccc(C(F)(F)F)cc1)c1cc2ccccc2cc1O [7c, 3-Hydroxy-N-(4-trifluoromethylphenyl)naphthalene-2-carboxamide] | 1.2835 | > 748 | > 748 | > 748 | 374 (≈ 124 µg/mL) | 187 (≈ 62 µg/mL) | 187 (≈ 62 µg/mL) | – | – | – | – | – | –
15 | CC1(C)S[C@@H]2[C@H](NC(=O)[C@H](N)c3ccccc3)C(=O)N2[C@H]1C(=O)O [APC, ampicillin, reference compound] | – | – | 5.7 (≈ 1.99 µg/mL) | > 45.8 | > 45.8 | > 45.8 | – | – | – | – | – | – | –
16 | CN(C)C(=O)Nc1ccc(Cl)c(Cl)c1 [DCMU, 3-(3,4-dichlorophenyl)-1,1-dimethylurea, reference compound] | – | – | – | – | – | – | – | ~1.9 µM and 1.9 µM | – | – | – | – | –
17 | NNC(=O)c1ccncc1 [INH, isoniazid, reference compound] | – | 467 (≈ 64 µg/mL) | – | – | – | – | – | – | – | – | – | – | –
18 | O=C(Nc1ccccc1)c1cc2ccccc2cc1O [compound 1, 3-Hydroxy-N-phenylnaphthalene-2-carboxamide] | 0.6310 | 122 (≈ 32.1 µg/mL) | > 972 | > 972 | > 972 | > 972 | 972 (≈ 256 µg/mL) | – | – | – | – | – | –
19 | COc1ccccc1NC(=O)c1cc2ccccc2cc1O [compound 2a, 3-Hydroxy-N-(2-methoxyphenyl)naphthalene-2-carboxamide] | 0.6916 | 873 (≈ 256 µg/mL) | 55 (≈ 16.1 µg/mL) | 55 (≈ 16.1 µg/mL) | 55 (≈ 16.1 µg/mL) | 55 (≈ 16.1 µg/mL) | 218 (≈ 63.9 µg/mL) | 59.5 µM | 55 (≈ 16.1 µg/mL) | 55 (≈ 16.1 µg/mL) | 55 (≈ 16.1 µg/mL) | 55 (≈ 16.1 µg/mL) | –
20 | COc1cccc(NC(=O)c2cc3ccccc3cc2O)c1 [compound 2b, 3-Hydroxy-N-(3-methoxyphenyl)naphthalene-2-carboxamide] | 0.6971 | > 873 | > 873 | > 873 | > 873 | > 873 | 54.6 (≈ 16 µg/mL) | 53.4 µM | – | – | – | – | 53.4
21 | O=C(Nc1ccccc1F)c1cc2ccccc2cc1O [compound 4a, N-(2-Fluorophenyl)-3-hydroxynaphthalene-2-carboxamide] | 0.7303 | 28.4 (≈ 7.99 µg/mL) | > 910 | > 910 | 455 (≈ 128 µg/mL) | 228 (≈ 64.1 µg/mL) | 56.9 (≈ 16 µg/mL) | – | – | – | – | – | –
